In BindingDB's records for doi:10.1016/s0960-894x(03)00330-5 (The University of Georgia, 2003):

Experiments:
[1] = In vitro antiviral activity against HIV-1 Reverse transcriptase wild type
[2] = In vitro antiviral activity against HIV-1 Reverse transcriptase M184V mutant

SMILES | EC50 [1] | EC50 [2]
Cc1cn([C@H]2C=C[C@@H](CO)O2)c(=O)[nH]c1=O [2',3'-didehydro-3'-deoxythymidine] | 450 nM | 500 nM
Nc1ccn([C@@H]2CS[C@H](CO)O2)c(=O)n1 [Epivir] | 42 nM | > 50000 nM
Nc1nc(=O)n([C@@H]2C=C[C@H](CO)O2)cc1F [ACH-126443] | 180 nM | 140 nM
